Experimental data from US4798897A, “Isoquinoline derivatives” (Asahi Kasei Kogyo Kabushiki Kaisha, priority 1987, dated 1989).

Experiments:
mesenteric artery = assay: Relaxation of mesenteric artery (KCl-contracted); details: Oryctolagus cuniculus; rabbit mesenteric artery contracted with 15 to 20 mM KCl; read-out: ED50 (concentration attaining 50% of complete relaxation)
Method: 1. Relaxation of Mesenteric Artery
A rabbit of Japanese local variety weighing about 3 kg was bled to death. Then, the abdomen of the rabbit was dissected to locate a mesenteric artery. […] Thus, shrinking and relaxation of the artery could be measured as a load on the transducer. To the organ bath, KCl was added so that the KCl concentration became 15 to 20 mM, causing the artery to shrink. Then, the compounds of the present invention were added to the organ bath to observe relaxation of the artery.
The effect of the compounds of the present invention on relaxation of mesenteric artery was examined according to the method as mentioned hereinbefore.

bronchial tubes = assay: Inhibition of histamine contraction of bronchial tubes (relaxation of bronchial tubes); details: Cavia porcellus; guinea pig bronchial tube, 10 μM histamine; Table 16; read-out: ED50 (50% decrease of histamine contraction of bronchial tubes)
Method: 3. Inhibition of Histamine Contraction of Bronchial Tubes (Relaxation of Bronchial Tubes)
That is, a bronchial tube sample taken from a guinea pig was suspended in the 20-ml bath filled with Krebs-Henseleit nutrient solution and maintained at a temperature of 37° C. To the bath was added histamine so that the histamine concentration became 10 μM, causing the bronchial tube sample to contract. After the contraction became stable, the compounds of the present invention were added cumulatively to the bath to observe relaxation of the bronchial tube sample.
The effect of the compounds of the present invention on relaxation of bronchial tubes was examined according to the method as mentioned hereinbefore.

| SMILES | EC50 (mesenteric artery) [µM] | EC50 (bronchial tubes) [µM] |
| --- | --- | --- |
| CCCCCCN(CCN(C)C)S(=O)(=O)c1cccc2cnccc12 [Compound (43), N-(2-dimethylaminoethyl)-N-hexyl-5-isoquinolinesulfonamide] | 20 | 27 |
| CCCCCCN(CCCCCC)CCN(Cc1ccccc1)S(=O)(=O)c1cccc2cnccc12 [Compound (44), N-benzyl-N-(2-dihexylamimoethyl)-5-isoquinolinesulfonamide] | 21 | 29 |
| CCCCCCN(CCN1CCCCC1)S(=O)(=O)c1cccc2cnccc12 [Compound (45), N-hexyl-N-(2-piperidinoethyl)-5-isoquinolinesulfonamide] | 23 | 17 |
| CCCCCCN(CCN1CCOCC1)S(=O)(=O)c1cccc2cnccc12 [Compound (46), N-hexyl-N-(2-morpholinoethyl)-5-isoquinolinesulfonamide] | 23 | 25 |
| CCN(CCN(C)C1CCCCC1)S(=O)(=O)c1cccc2cnccc12 [Compound (47), N-[2-(N-cyclohexyl-N-methylamino)ethyl]-N-ethyl-5-isoquinolinesulfonamide] | 22 | 19 |
| CCCCCCN(CC(C)N1CCCCC1)S(=O)(=O)c1cccc2cnccc12 (stereo not drawn) [Compound (48), N-hexyl-N-(2-piperidinopropyl)-5-isoquinolinesulfonamide] | 24 | 20 |
| CCN(CCCCCN1CCCCC1)S(=O)(=O)c1cccc2cnccc12 [Compound (50), N-ethyl-N-(5-piperidinopentyl)-5-isoquinolinesulfonamide] | 26 | 26 |
| NC1CCN(S(=O)(=O)c2cccc3cnccc23)CC1 [Compound (51), 1-(5-isoquinolinesulfonyl)-4-aminopiperidine] | 15 | 8 |
| CNC1CCN(S(=O)(=O)c2cccc3cnccc23)CC1 [Compound (52), 1-(5-isoquinolinesulfonyl)-4-methylaminopiperidine] | 14 | 12 |
| CCNC1CCN(S(=O)(=O)c2cccc3cnccc23)CC1 [Compound (53), 1-(5-isoquinolinesulfonyl)-4-ethylaminopiperidine] | 14 | 11 |
| CCCNC1CCN(S(=O)(=O)c2cccc3cnccc23)CC1 [Compound (54), 1-(5-isoquinolinesulfonyl)-4-propylaminopiperidine] | 13 | 14 |
| CC(C)NC1CCN(S(=O)(=O)c2cccc3cnccc23)CC1 [Compound (55), 1-(5-isoquinolinesulfonyl)-4-isopropylaminopiperidine] | 17 | 12 |
| CCCCNC1CCN(S(=O)(=O)c2cccc3cnccc23)CC1 [Compound (56), 1-(5-isoquinolinesulfonyl)-4-butylaminopiperidine] | 14 | 10 |
| CCCCCCNC1CCN(S(=O)(=O)c2cccc3cnccc23)CC1 [Compound (57), 1-(5-isoquinolinesulfonyl)-4-hexylaminopiperidine] | 15 | 20 |
| O=S(=O)(c1cccc2cnccc12)N1CCC(Nc2ccccc2)CC1 [Compound (58), 1-(5-isoquinolinesulfonyl)-4-phenylaminopiperidine] | 20 | 25 |
| CCCCCCN(C)C1CCN(S(=O)(=O)c2cccc3cnccc23)CC1 [Compound (59), 1-(5-isoquinolinesulfonyl)-4-(N-hexyl-N-methylamino)piperidine] | 21 | 23 |
| O=S(=O)(c1cccc2cnccc12)N1CCC(NCc2ccccc2)CC1 [Compound (60), 1-(5-isoquinolinesulfonyl)-4-benzylaminopiperidine] | 19 | 13 |
| O=S(=O)(c1cccc2cnccc12)N1CCC(NCCc2ccccc2)CC1 [Compound (61), 1-(5-isoquinolinesulfonyl)-4-phenethylaminopiperidine] | 15 | 15 |
| O=S(=O)(c1cccc2cnccc12)N1CCC(N2CCCCC2)CC1 [Compound (62), 1-(5-isoquinolinesulfonyl)-4-piperidinopiperidine] | 22 | 23 |
| CNC1CCCN(S(=O)(=O)c2cccc3cnccc23)C1 (stereo not drawn) [Compound (64), 1-(5-isoquinolinesulfonyl)-3-methylaminopiperidine] | 6 | 6 |
| CCNC1CCCN(S(=O)(=O)c2cccc3cnccc23)C1 (stereo not drawn) [Compound (65), 1-(5-isoquinolinesulfonyl)-3-ethylaminopiperidine] | 6 | 5 |

| SMILES | EC50 (mesenteric artery) [µM] | EC50 (bronchial tubes) [µM] |
| --- | --- | --- |
| CCCNC1CCCN(S(=O)(=O)c2cccc3cnccc23)C1 (stereo not drawn) [Compound (66), 1-(5-isoquinolinesulfonyl)-3-propylaminopiperidine] | 5 | 8 |
| CC(C)NC1CCCN(S(=O)(=O)c2cccc3cnccc23)C1 (stereo not drawn) [Compound (67), 1-(5-isoquinolinesulfonyl)-3-isopropylaminopiperidine] | 14 | 10 |
| O=S(=O)(c1cccc2cnccc12)N1CCCC(NCc2ccccc2)C1 (stereo not drawn) [Compound (69), 1-(5-isoquinolinesulfonyl)-3-benzylaminopiperidine] | 8 | 14 |
| O=S(=O)(c1cccc2cnccc12)N1CCCC(NCCc2ccccc2)C1 (stereo not drawn) [Compound (70), 1-(5-isoquinolinesulfonyl)-3-phenethylaminopiperidine] | 7 | 13 |
| O=S(=O)(c1cccc2cnccc12)N1CCCC(N2CCCCC2)C1 (stereo not drawn) [Compound (72), 1-(5-isoquinolinesulfonyl)-3-piperidinopiperidine] | 24 | 21 |
| CN(C)C1CCCN(S(=O)(=O)c2cccc3cnccc23)C1 (stereo not drawn) [Compound (73), 1-(5-isoquinolinesulfonyl)-3-dimethylaminopiperidine] | 19 | 26 |
| CC1CCN(S(=O)(=O)c2cccc3cnccc23)CC1N (stereo not drawn) [Compound (75), 1-(5-isoquinolinesulfonyl)-3-amino-4-methylpiperidine] | 20 | 16 |
| CNC1CCN(S(=O)(=O)c2cccc3cnccc23)C1 (stereo not drawn) [Compound (76), 1-(5-isoquinolinesulfonyl)-3-methylaminopyrrolidine] | 13 | 27 |
| CC1CC(N)CN1S(=O)(=O)c1cccc2cnccc12 (stereo not drawn) [Compound (77), 1-(5-isoquinolinesulfonyl)-3-amino-5-methylpyrrolidine] | 16 | 32 |
| NC1CCN(S(=O)(=O)c2cccc3cnccc23)C1 (stereo not drawn) [Compound (78), 1-(5-isoquinolinesulfonyl)-3-aminopyrrolidine] | 12 | 30 |
| NC1CCN(S(=O)(=O)c2cccc3c(O)nccc23)CC1 [Compound (79), 1-(1-hydroxy-5-isoquinolinesulfonyl)-4-aminopiperidine] | 15 | 13 |
| CNC1CCN(S(=O)(=O)c2cccc3c(O)nccc23)CC1 [Compound (80), 1-(1-hydroxy-5-isoquinolinesulfonyl)-4-methylaminopiperidine] | 14 | 16 |
| CCCNC1CCN(S(=O)(=O)c2cccc3c(O)nccc23)CC1 [Compound (81), 1-(1-hydroxy-5-isoquinolinesulfonyl)-4-propylaminopiperidine] | 12 | 14 |
| O=S(=O)(c1cccc2c(O)nccc12)N1CCC(Nc2ccccc2)CC1 [Compound (82), 1-(1-hydroxy-5-isoquinolinesulfonyl)-4-phenylaminopiperidine] | 21 | 21 |
| O=S(=O)(c1cccc2c(O)nccc12)N1CCC(NCc2ccccc2)CC1 [Compound (83), 1-(1-hydroxy-5-isoquinolinesulfonyl)-4-benzylaminopiperidine] | 18 | 19 |
| CCCNC1CCCN(S(=O)(=O)c2cccc3c(O)nccc23)C1 (stereo not drawn) [Compound (85), 1-(1-hydroxy-5-isoquinolinesulfonyl)-3-propylaminopiperidine] | 13 | 11 |
| O=S(=O)(c1cccc2c(O)nccc12)N1CCCC(NCc2ccccc2)C1 (stereo not drawn) [Compound (86), 1-(1-hydroxy-5-isoquinolinesulfonyl)-3-benzylaminopiperidine] | 17 | 11 |
| O=S(=O)(c1cccc2c(O)nccc12)N1CCCC(Nc2ccccc2)C1 (stereo not drawn) [Compound (87), 1-(1-hydroxy-5-isoquinolinesulfonyl)-3-phenylaminopiperidine] | 20 | 15 |
| CCCCCCNC1CCCN(S(=O)(=O)c2cccc3c(O)nccc23)C1 (stereo not drawn) [Compound (88), 1-(1-hydroxy-5-isoquinolinesulfonyl)-3-hexylaminopiperidine] | 12 | 9 |
| O=S(=O)(c1cccc2c(O)nccc12)N1CCCC(NCCc2ccccc2)C1 (stereo not drawn) [Compound (89), 1-(1-hydroxy-5-isoquinolinesulfonyl)-3-phenethylaminopiperidine] | 12 | 10 |
| CN(C)C1CCCN(S(=O)(=O)c2cccc3c(O)nccc23)C1 (stereo not drawn) [Compound (90), 1-(1-hydroxy-5-isoquinolinesulfonyl)-3-dimethylaminopiperidine] | 23 | 17 |
